Here are results for one compound from publication PMC5905968, “Evaluation of the fusion inhibitor P3 peptide as a potential microbicide to prevent HIV transmission in women” (PLoS ONE, 2018).

In one data set the test system is spermatozoa. The experiment in a line: Spermicidal activity: sperm motility (CASA) and viability (Eosin Y). It counts as cell-based, human. The following applies: 114 μM P3, 37°C, 0, 30, 60, 120 and 240 min, versus control without P3; donors n = 3. As for the experimental part: Sperm was obtained from normal donors (n = 3) after signing a written informed consent. […] Spermatozoa viability was evaluated by dye exclusion method using a solution of Eosin Y (5mg/mL). Two hundred spermatozoa were counted with a phase-contrast microscope (Olympus, Modell BH-2), differentiating the live (unstained) spermatozoa from the dead (stained) cells. Sperm motility was evaluated in a Makler chamber using a computer-aided sperm analysis system (CASA, Hamilton Thorne Research, MA, USA). At least five microscopic fields were assessed in a systematic way to classify 200 spermatozoa motility. Each spermatozoon is graded according to cell velocity: progressive motility (i.e.,>5 μm/s), non-progressive motility (<5 μm/s) and immotility.

A further data set deals with HIV-1 isolate 93AOHDC250. The data set is described as follows: Single-round viral infectivity assay, luciferase, TZM-bl reporter cells, after exposure of P3 to fluids, temperature, pH or H2O2. The procedure: The antiviral activity of P3 in the presence of SP and VFS was determined with a single-round viral infectivity assay using TZM-bl reporter cells, as previously described. Briefly, TZM-bl cells were plated (1x10^4 cells/well) in a 96-plate and incubated overnight at 37°C with 5% CO2. […] The same procedure was done with VFS and with SP+VFS. Cells were then infected with 200 TCID50 (in 100 μl) of HIV-1 isolate 93AOHDC250 and incubated for 48h before measuring the luciferase activity with the Pierce Firefly Luc One-Step Glow Assay Kit (ThermoFisher Scientific, Rockford, USA) according to the manufacturer’s instructions. At least two independent experiments, each in triplicate, were performed for each antiviral activity analysis. For these experiments, the positive control was made of cells plus virus, the negative control was made of cells plus complete growth medium, compound controls were made of cells plus P3 alone or P3 in SP, VFS or SP+VPS, and the biological fluids control were made of cells plus SP, VFS or SP+VFS.
The long-term stability of P3 was evaluated in the presence of SP [0.5% or 1% (v/v)] or VFS at 37°C for a period of 24h, 48h and 1 week before performing the assay, as described above. In all cases, P3 was considered stable in the presence of biologic fluids if its antiviral activity was unaffected by SP, VFS and SP+VFS. In addition, peptide concentration was determined after exposure to the above conditions by mass spectrometry as described below.
The stability and antiviral activity of P3 were evaluated at different conditions of temperature, pH and oxidation. […] The antiviral activity of each peptide solution was then evaluated with a single-round viral infectivity assay using TZM-bl reporter cells and HIV-1 isolate 93AOHDC250, as described above.
The effect of pH on P3 was evaluated at pH ranging from 4 to 8. Briefly, IC50 peptide solutions were prepared in GM and the pH was adjusted using HCl (1M) or NaOH (1M). Each solution was then incubated at 37°C for 2, 8 and 24 hours and their antiviral activity was determined in a single-round viral infectivity assay using a luciferase reporter gene assay in TZM-bl cells as described above.
To test for oxidation by H2O2, P3 solutions at concentrations corresponding to the IC50 and IC90 were treated with H2O2 at biologic relevant concentrations (1.2μM and 5μM). The antiviral activity of the different solutions was determined in a single-round viral infectivity assay using a luciferase reporter gene assay in TZM-bl cells, as described above.
Controls for these experiments were the following: positive controls (cells plus virus), negative controls (cells plus complete growth medium); pH compound controls (cells plus P3 in different pH growth medium); H2O2 compound controls (cells plus P3 in H2O2, 1.2μM or 5μM); cell controls were also performed under the same incubation conditions. H2O2 and pH cytotoxicity were assessed in TZM-bl cells using alamarBlue assay. In all cases, P3 was considered stable when its antiviral activity was unaffected under the different conditions tested.

For the compound `CC[C@H](C)[C@H](NC(=O)[C@H](CC(N)=O)NC(=O)[C@H](C)NC(=O)[C@H](CCC(=O)O)NC(=O)[C@H](CC(C)C)NC(=O)[C@H](Cc1ccc(O)cc1)NC(=O)[C@H](CCCNC(=N)N)NC(=O)[C@@H](NC(=O)[C@H](CCC(N)=O)NC(=O)[C@H](CCC(N)=O)NC(=O)[C@H](CCC(=O)O)NC(=O)[C@H](Cc1c[nH]c2ccccc12)NC(=O)[C@H](CCC(=O)O)NC(=O)[C@H](CCC(N)=O)NC(=O)[C@H](Cc1c[nH]c2ccccc12)NC(C)=O)C(C)C)C(=O)N[C@@H](CO)C(=O)N[C@@H](CCC(N)=O)C(=O)N[C@@H](CCCNC(=N)N)C(=O)N[C@@H](CC(C)C)C(=O)N[C@@H](CCC(=O)O)C(=O)N[C@@H](CCC(N)=O)C(=O)N[C@@H](C)C(=O)N[C@@H](CCC(N)=O)C(=O)N[C@H](C(=O)N[C@@H](CCC(N)=O)C(=O)N[C@@H](CCC(N)=O)C(=O)N[C@@H](CCC(=O)O)C(=O)N[C@@H](CCCCN)C(=O)N[C@@H](CC(N)=O)C(=O)N[C@@H](CCSC)C(=O)N[C@@H](Cc1ccc(O)cc1)C(=O)N[C@@H](CCC(=O)O)C(=O)N[C@@H](CC(C)C)C(=O)N[C@@H](CCC(N)=O)C(N)=O)[C@@H](C)CC` [P3], the spermatozoa motility result with spermatozoa is listed as “No significant changes”. The spermatozoa vitality result in the data set with spermatozoa is “No significant changes”. Also, in the data set on HIV-1 isolate 93AOHDC250 (P3 366.4 nM, seminal plasma 1% (v/v), 37°C, 1 week), the “antiviral activity in the presence of SP 1%” value was “significant decrease of antiviral activity”. The “antiviral activity in the presence of human fluids” value in the data set on HIV-1 isolate 93AOHDC250 (P3 366.4 nM, SP 0.5% or 1% (v/v), VFS, SP+VFS, 37°C, up to 1 week of contact, at least two experiments in triplicate) is recorded as “unaffected”. In the data set on HIV-1 isolate 93AOHDC250 (P3 366.4 nM, SP 0.5% or 1%, VFS, 37°C), the “time of full antiviral activity in the presence of human biological fluids” value was “at least 48 h”. The mean viral inhibition came out at 99% with HIV-1 isolate 93AOHDC250 (P3 at IC90 (366.4 nM) in growth medium, incubated 1 week at 25°C before assay); 99% in the data set with HIV-1 isolate 93AOHDC250 (P3 at IC90 (366.4 nM) in growth medium, incubated 1 week at 37°C before assay); 100% with HIV-1 isolate 93AOHDC250 (P3 at IC90 (366.4 nM) in growth medium, incubated 1 week at 65°C before assay); 99% with HIV-1 isolate 93AOHDC250 (control: P3 at IC90 (366.4 nM), antiviral activity determined after 48h at 37°C).
